Data set [1] has as its target T1, Na^+ /H^+ exchanger of rabbit erythrocytes (Oryctolagus cuniculus, UniProt P23791).
T1 construct: from tissue; host or cells: rabbit blood (erythrocytes), White New Zealand rabbits
The data set is described as follows: Inhibition of the Na^+ /H^+ exchanger of rabbit erythrocytes (amiloride-sensitive sodium influx, flame photometry). It counts as cell-based. The settings on record: pH 7.4, 37° C., cholesterol-fed White New Zealand rabbits. An excerpt: Inhibition of the Na^+ /H^+ exchanger of rabbit erythrocytes:
White New Zealand rabbits (Ivanovas) received a standard diet containing 2% cholesterol for six weeks in order to activate Na^+ /H^+ exchange and thus to be able to determine the Na^+ influx into the erythrocytes via Na^+ /H^+ exchange by flame photometry. The blood was taken from the ear arteries and anticoagulated by 25 IU/ml potassium heparin. A portion of each sample was used for duplicate determination of the hematocrit by centrifugation. Aliquots each of 100 μl were used to measure the initial Na^+ content of the erythrocytes.
In order to determine the amiloride-sensitive sodium influx, 100 μl of each blood sample were incubated in each case in 5 ml of a hyperosmolar salt/sucrose medium (mmol/l: 140 NaCl, 3 KCl, 150 sucrose, 0.1 ouabain, 20 tris-hydroxymethylaminomethane) at pH 7.4 and 37° C. The erythrocytes were then washed three times with ice-cold MgCl2 /ouabain solution (mmol/l: 112 MgCl2, 0.1 ouabain) and hemolyzed in 2.0 ml of distilled water. The intracellular sodium content was determined by flame photometry.
The net Na^+ influx was calculated from the difference between the initial sodium levels and the sodium content of the erythrocytes after incubation. The sodium influx which can be inhibited by amiloride was found from the difference in the sodium content of the erythrocytes after incubation with and without amiloride 3×10^-4 mol/l. The compounds according to the invention were also subjected to this process.

Data set [2] relates to rat hearts. The settings on record: isolated rat hearts; Eur. Heart J. 9 (suppl. 1): 167 (1988); cited from earlier work.
The test system of data set [3] is cardiac rhythm disturbances. The settings on record: cited from earlier work.

Where a name gives a salt, the structure may show the parent alone. Where only a bound is given, the exact number is not on record here.

T1 sequence (P23791 whole entry): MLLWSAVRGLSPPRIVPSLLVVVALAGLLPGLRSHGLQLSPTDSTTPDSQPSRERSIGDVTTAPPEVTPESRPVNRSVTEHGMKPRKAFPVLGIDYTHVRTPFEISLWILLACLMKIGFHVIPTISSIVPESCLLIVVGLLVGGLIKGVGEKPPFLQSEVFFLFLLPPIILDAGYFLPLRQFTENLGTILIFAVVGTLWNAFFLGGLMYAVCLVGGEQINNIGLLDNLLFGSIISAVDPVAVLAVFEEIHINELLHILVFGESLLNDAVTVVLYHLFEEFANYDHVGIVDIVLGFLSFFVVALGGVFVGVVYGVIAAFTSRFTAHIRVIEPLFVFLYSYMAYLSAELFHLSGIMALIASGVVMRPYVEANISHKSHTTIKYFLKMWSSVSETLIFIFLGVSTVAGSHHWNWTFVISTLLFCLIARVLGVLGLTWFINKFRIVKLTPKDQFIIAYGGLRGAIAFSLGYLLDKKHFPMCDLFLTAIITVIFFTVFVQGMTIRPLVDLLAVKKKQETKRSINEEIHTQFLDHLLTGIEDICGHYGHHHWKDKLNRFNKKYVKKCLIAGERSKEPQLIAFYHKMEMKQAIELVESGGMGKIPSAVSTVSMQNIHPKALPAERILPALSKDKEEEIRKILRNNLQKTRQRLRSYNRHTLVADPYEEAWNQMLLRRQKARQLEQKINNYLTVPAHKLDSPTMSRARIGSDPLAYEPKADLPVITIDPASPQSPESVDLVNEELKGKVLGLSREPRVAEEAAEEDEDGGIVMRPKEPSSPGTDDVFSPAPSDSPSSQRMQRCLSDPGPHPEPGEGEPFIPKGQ

Compound `NC(N)=NC(=O)C=Cc1cccc(C(F)(F)F)c1` [Example 1, Meta-Trifluoromethylcinnamic Acid Guanidide Hydrochloride] displayed an IC50 in data set [1] of under 1000 nM.

In data set [1], `C/C(=C\c1cccc(C(F)(F)F)c1)C(=O)N=C(N)N` [Example 3, Trans-2-Methyl-3-(3-Trifluoromethylphenyl)-Acrylic Acid Guanidide] registered an IC50 of under 1000 nM. As for `C/C(C(=O)N=C(N)N)=C(/C)c1cc(C(F)(F)F)ccc1F` [Example 10, Trans-2,3-Dimethyl-3-[2-Fluoro-5-Trifluoromethyl-Phenyl]-Acrylic Acid Guanidide], the 50% inhibitory concentration (IC50) in data set [1] was under 1000 nM. In the case of `N=C(N)NC(=O)c1nc(Cl)c(N)nc1N` [amiloride], the “suppression of artificially induced ventricular fibrillation” value in data set [2] was “completely to suppress artificially induced ventricular fibrillation”. Moreover, the antiarrhythmic effect entry in data set [3] (Circulation 79, 1257-63 (1989)) is on record as “only weak”. The accompanying side effects result in data set [3] (in vivo) is “blood pressure-lowering and saluretic effect”. With `CCN(c1nc(N)c(C(=O)NC(=N)N)nc1Cl)C(C)C` [ethylisopropylamiloride], the “suppression of artificially induced ventricular fibrillation” value in data set [2] is “Even more potent than amiloride”.

The values are drawn from patent publication US6025349A, “Phenyl.-substituted alkenylcarboguanidides carrying perfluoroalkyl groups, a process for their preparation, their use as a medicament or diagnostic agent, and also a medicament containing them” (priority 1994, dated 2000).
